# What was measured:
# [1] = biological target: T1, HCV genotype 1b (BK) NS3 modified enzyme with a R155K mutation (Hepatitis C virus genotype 1b, UniProt P26663, R1181K); assay: HCV NS3 protease time-resolved fluorescence (TRF) assay, genotype 1b R155K; format: biochemical; conditions: Ki 1b R155K, genotype 1b (BK) NS3 R155K; single value
# T1 construct: HCV genotype 1b (BK) NS3 modified enzyme
# Outline: (§1)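 IC50 values derive from 4-parameter fitting of TRF signal after a 6 h room-temperature cleavage of 25 nM peptide substrate by NS3/NS4A that had been pre-incubated 10 min with compound.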
# [2] = biological target: HCV NS3 protease genotype 3a (3A-1) (Hepatitis C virus genotype 3a, UniProt Q81258); assay: HCV NS3 protease time-resolved fluorescence (TRF) assay, genotype 3a; format: biochemical; conditions: Ki 3a
# Outline: as §1
SMILES,Ki [1] [nM],Ki [2] [nM]
"C=C[C@@H]1C[C@]1(NC(=O)[C@@H]1C[C@@H]2CN1C(=O)[C@H](C1CCCC1)NC(=O)O[C@@H]1CCC[C@H]1CCCCCc1c(nc3ccccc3c1O)O2)C(=O)NS(=O)(=O)C1CC1 [Example 34, (3aR,7S,10S,12R,24aR)-7-cyclo pentyl-N-{(1R,2S)-1-[(cyclopropylsulfonyl)carbamoyl]-2-ethenylcyclopropyl}-19-hydroxy-5,8-dioxo-1,2,3,3a,5,6,7,8,11,12,20,21,22,23,24,24a-hexadecahydro-10H-9,12-methanocyclopenta [18,19][1,10,3,6]dioxadiazacyclononadecino [11,12-b]quinoline-10-carboxamide]",0.1,1.8
"C=C[C@@H]1C[C@]1(NC(=O)[C@@H]1C[C@@H]2CN1C(=O)[C@H](C(C)(C)C)NC(=O)O[C@@H]1C[C@H]1CCCCCc1c(nc3c(F)cccc3c1OCCn1ccnc1)O2)C(=O)NS(=O)(=O)C1(C)CC1 [Example 214, (1aR,5S,8S,10R,22aR)-5-tert-butyl-N-[(1R,2S)-2-ethenyl-1-{[(1-methylcyclopropyl)sulfonyl]carbamoyl}cyclopropyl]-13-fluoro-17-[2-(1H-imidazol-1-yl)ethoxy]-3,6-dioxo-1,1a,3,4,5,6,9,10,18,19,20,21,22,22a-tetradecahydro-8H-7,10-methanocyclopropa[18,19][1,10,3,6] dioxadiazacyclononadecino[11,12-b]quinoline-8-carboxamide]",0.021,1.2
C=C[C@@H]1C[C@]1(NC(=O)[C@@H]1C[C@@H]2CN1C(=O)[C@H](C(C)(C)C)NC(=O)O[C@@H]1C[C@H]1CCCCCc1c(nc3ccccc3c1OCCN1CCCC1)O2)C(=O)NS(=O)(=O)C1(C)CC1 [Example 135],0.2,1.8
"C=C[C@@H]1C[C@]1(NC(=O)[C@@H]1C[C@@H]2CN1C(=O)[C@H](C1CCCCC1)NC(=O)O[C@@H]1C[C@H]1CCCCCc1c(nc3c(OC)cccc3c1OCC1CN(C(=O)OC(C)(C)C)C1)O2)C(=O)NS(=O)(=O)C1(C)CC1 [Example 215, tent-butyl 3-[({(1aS,5R,8S,10R,22aR)-5-cyclohexyl-8-[(2-ethenyl-1-{[(1-methylcyclopropyl)sulfonyl]carbamoyl}cyclopropyl)carbamoyl]-13-methoxy-3,6-dioxo-1,1a,3,4,5,6,9,10,18,19,20,21,22,22a-tetradecahydro-8H-7,10-methanocyclopropa[18,19][1,10,3,6]dioxadiazacyclononadecino[11,12-b]quinolin-1'7-yl}oxy)methyl]azetidine-1-carboxylate]",1.7,55
"C=C[C@@H]1C[C@]1(NC(=O)[C@@H]1C[C@@H]2CN1C(=O)[C@H](C1CCCCC1)NC(=O)O[C@@H]1C[C@H]1CCCCCc1c(nc3ccccc3c1OCCN1CCOCC1)O2)C(=O)NS(=O)(=O)C1(C)CC1 [Example 122, (1aR,5S,8S,10R,22aR)-5-cyclohexyl-N-[(1R,2S)-2-ethenyl-1-{[(1-methylcyclopropyl)sulfonyl]carbamoyl}cyclopropyl]-17-[2-(morpholin-4-yl)ethoxy]-3,6-dioxo-1,1,a,3,4,5,6,9,10,18,19,20,21, 22,22a-tetradecahydro-8H-7,10-methanocyclopropa[18,19][1,10,3,6] dioxadiazacyclononadecino [11,12-b]quinoline-8-carboxamide]",0.33,8.8
"C=C[C@@H]1C[C@]1(NC(=O)[C@@H]1C[C@@H]2CN1C(=O)[C@H](C1CCCC1)NC(=O)O[C@@H]1CCC[C@H]1CC/C=C/Cc1c(nc3ccccc3c1OCCCN1CCCCC1)O2)C(=O)NS(=O)(=O)C1(C)CC1 [Example 58, (3aR,7S,10S,12R,21E,24aS)-7-cyclopentyl-N-[(1R,2S)-2-ethenyl-1-{[(1-methylcyclopropyl)sulfonyl]carbamoyl}cyclopropyl]-5,8-dioxo-19-[3-(piperidin-1-yl)propoxy]-1,2,3,3a,5,6,7,8,11,12,20,23,24,24a-tetra decahydro-10H-9,12-methanocyclopenta[18,19][1,10,3,6] dioxadiazacyclononadecino[11,12-b] quinoline-10-carboxamide]",0.1,0.57
"C=C[C@@H]1C[C@]1(NC(=O)[C@@H]1C[C@@H]2CN1C(=O)[C@H](C(C)(C)C)NC(=O)O[C@@H]1C[C@H]1CCCCCc1c(nc3ccccc3c1OCC1CN(C)C1)O2)C(=O)NS(=O)(=O)C1(C)CC1 [Example 224, (1aR,5S,8S,10R,22aR)-5-tert-butyl-N-[(1R,2S)-2-ethenyl-1-{[(1-methylcyclopropyl)sulfonyl]carbamoyl}cyclopropyl]-17-[(1-methylazetidin-3-yl)methoxy]-3,6-dioxo-1,1a,3,4,5,6,9,10,18,19,20,21,22,22a-tetradecahydro-8H-7,10-methanocyclopropa[18,19][1,10,3,6]dioxadiazacyclononadecino[11,12-b]quinoline-8-carboxamide]",0.061,0.67
"C=CC1C[C@]1(NC(=O)[C@@H]1C[C@@H]2CN1C(=O)[C@H](C1CCCC1)NC(=O)O[C@@H]1CCC[C@H]1CC/C=C/Cc1c(nc3ccccc3c1OCCCN1CCN(C)CC1)O2)C(=O)NS(=O)(=O)C1CC1 (stereo partly drawn) [Example 88, (3aR,7S,10S,12R,21E,24aS)-7-cyclo pentyl-N-{(1R,2S)-1-[(cyclo-propylsulfonyl)carbamoyl]-2-ethenylcyclopropyl}-19-[3-(4-methylpiperazin-1-yl)propoxy]-5,8-dioxo-1,2,3,3a,5,6,7,8,11,12,20,23,24,24a-tetradecahydro-10H-9,12-methano-cyclopenta[18,19][1,10,3,6]dioxa diazacyclononadecino[11,2-b]quinoline-10-carboxamide]",0.34,4.4
"C=C[C@@H]1C[C@]1(NC(=O)[C@@H]1C[C@@H]2CN1C(=O)[C@H](C1CCCC1)NC(=O)O[C@@H]1CCC[C@H]1CC/C=C/Cc1c(nc3ccccc3c1OCCCOCCOC)O2)C(=O)NS(=O)(=O)C1CC1 [Example 47, (3aR,7S,10S,12R,21E,24aS)-7-cyclopentyl-N-{(1R,2S)-1-[(cyclopropylsulfonyl)carbamoyl]-2-ethenylcyclopropyl}-19-[3-(2-methoxyethoxy)propoxy]-5,8-dioxo-1,2,3,3a,5,6,7,8,11,12,20,23,24,24a-tetradeca-hydro-10H-9,12-methanocyclopenta[18,19] [1,10,3,6]dioxadiazacyclononadecino[11, 12-b]quinoline-10-carboxamide]",0.12,2.9
"C=C[C@@H]1C[C@]1(NC(=O)[C@@H]1C[C@@H]2CN1C(=O)[C@H](C1CCCC1)NC(=O)O[C@@H]1CCC[C@H]1CC/C=C/Cc1c(nc3ccccc3c1OCc1ccccc1)O2)C(=O)NS(=O)(=O)C1CC1 [Example 8, (3aR,7S,10S,12R,21E,24aS)-19-(benzyloxy)-7-cyclopentyl-N-{(1R,2S)-1-[(cyclopropylsulfonyl)carbamoyl]-2-ethenylcyclopropyl}-5,8-dioxo-1,2,3,3a,5,6,7,8,11,12,20,23,24,24a-tetradecahydro-10H-9,12-methanocyclopenta[18,19][1,10,3,6] dioxadiazacyclononadecino[11,12-b]quinoline-10-carboxamide]",1.6,51
"C=C[C@@H]1C[C@]1(NC(=O)[C@@H]1C[C@@H]2CN1C(=O)[C@H](C(C)(C)C)NC(=O)O[C@@H]1C[C@H]1CCCCCc1c(nc3ccccc3c1OCC1CN(CC)CCO1)O2)C(=O)NS(=O)(=O)C1(C)CC1 (stereo partly drawn) [Example 226, (1aR,5S,8S,10R,22aR)-5-tert-butyl-N-[(1R,2S)-2-ethenyl-1-{[(1-methylcyclopropyl)sulfonyl]carbamoyl}cyclopropyl]-17-[(4-ethylmorpholin-2-yl)methoxy]-3,6-dioxo-1,1a,3,4,5,6,9,10,18,19,20,21,22,22a-tetradecahydro-8H-7,10-methanocyclopropa[18,19][1,10,3,6] dioxadiazacyclononadecino[11,12-b]quinoline-8-carboxamide]",0.11,1.6
"C=C[C@@H]1C[C@]1(NC(=O)[C@@H]1C[C@@H]2CN1C(=O)[C@H](C(C)(C)C)NC(=O)O[C@@H]1CCC[C@H]1CCCCCc1c(nc3ccccc3c1OCCCN1CCOCC1)O2)C(=O)NS(=O)(=O)C1CC1 [Example 98, (3aR,S,10S,12R,24aR)-7-tert-butyl-N-{(1R,2S)-1-[(cyclopropyl-sulfonyl)carbamoyl]-2-ethenylcyclopropyl}-19-[3-(morpholin-4-yl)propoxy]-5,8-dioxo-1,2,3,3a,5,6,7,8,11,12,20,21,22,23, 24,24a-hexadecahydro-10H-9,12-methanocyclopenta [18,19][1,10,3,6]dioxadiazacyclo-nonadecino[11,12-b]quinoline-10-carboxamide]",0.18,2.9
"CC[C@@H]1C[C@]1(NC(=O)[C@@H]1C[C@@H]2CN1C(=O)[C@H](C1CCCC1)NC(=O)OC1(C)CCCC1CCCCCc1c(nc3ccccc3c1O)O2)C(=O)NS(=O)(=O)C1CC1 (single isomer, unassigned) [Example 32]",0.54,9.2
"C=C[C@@H]1C[C@]1(NC(=O)[C@@H]1C[C@@H]2CN1C(=O)[C@H](C1CCCC1)NC(=O)O[C@@H]1CCC[C@H]1CCCCCc1c(nc3ccccc3c1OC)O2)C(=O)NS(=O)(=O)C1CC1 [Example 26, (3aR,7S,10S,12R,24aR)-7-cyclo pentyl-N-{(1R,2S)-1-[(cyclopropylsulfonyl)carbamoyl]-2-ethenylcyclopropyl}-19-methoxy-5,8-dioxo-1,2,3,3a,5,6,7,8,11,12,20,21,22,23,24,24a-hexadecahydro-10H-9,12-methanocyclopenta [18,19][1,10,3,6]dioxadiazacyclononadecino [11,12-b]quinoline-10-carboxamide]",0.33,13

# Reference: patent US9328138B2 (priority 2011, dated 2016)
